Data on eight compounds can be found in PubChem BioAssay (NCI).

Values joined by “and” are separate entries in the source; they are usually repeats but may differ in a detail not shown here. Identical values can stand only once.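 Five compound concentrations were applied to cells in 96-well plates for 48 hours; endpoints were derived by simple linear interpolation of the resulting dose-response curve. GI50: concentration for 50% inhibition of growth. TGI: concentration producing complete growth inhibition.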

Common to all, as to test: inhibition of tumour cell growth, NCI panel, 48 h
For assay [1], the system named is HT29 colon.
For assay [2], the system named is SNB-19 CNS.
The test system of assay [3] is M14 melanoma.
Assay [4] has as its system SR leukemia.
In assay [5] the test system is MCF7 breast.
The test system of assay [6] is DU-145 prostate.
In assay [7] the test system is OVCAR-4 ovarian.
Assay [8] has as its system RPMI-8226 leukemia.
Assay [9] deals with IGROV1 ovarian.
Assay [10] has as its system TK-10 renal.

For the compound `O=C(O)C1(C(=O)O)CCC1.[NH2-].[NH2-].[Pt+2]`, the GI50 in assay [1] is 210 µM and > 250 µM; in assay [2] it was 148 µM and 103 µM; in [3] it was 109 µM and 184 µM; in assay [4] it was 94.6 µM; in assay [5] it was 137 µM and 248 µM; in [6] it was 121 µM and 94.6 µM. Further, the GI50 in assay [7] was 84 µM and 120 µM; in assay [8], 165 µM and 186 µM; in assay [9], 47.2 µM and 91.8 µM; in assay [10], 220 µM and 131 µM. Moreover, the TGI in assay [1] was > 250 µM; in [2] it was 224 µM and > 250 µM; in assay [3] it was 248 µM and > 250 µM; in [4] it was > 230 µM; in assay [5] it was > 250 µM; in [6], > 250 µM. The TGI is 221 µM and > 250 µM in assay [7]; 234 µM and > 250 µM in [8]; 130 µM and 194 µM in assay [9]; > 250 µM in assay [10].
With `CC(C)O/N=C/c1cc(NC(=S)OC(C)C)ccc1Cl`, the TGI in [1] was 66.3 µM; in assay [2] it was > 72.4 µM; in assay [3], > 95.6 µM; in assay [4] it was 45 µM; in [5], > 68.8 µM; in [6], > 100 µM. For the same compound, the TGI is > 88.8 µM in assay [7], 54.2 µM in [8], > 94.1 µM in [9] and > 100 µM in [10].
For the compound `Cc1nc(-c2cn3c(n2)-c2ccc(-c4cnn(C(C)(C)C(N)=O)c4)cc2OCC3)n(C(C)C)n1`, the GI50 in [1] was 0.0225 µM and 0.0401 µM; in assay [2], 1.92 µM and 2.47 µM; in assay [3], 3.24 µM and 3.57 µM; in [4], 4.97 µM and 8.69 µM; in [5], < 0.01 µM and 0.00991 µM; in assay [6] it was 1.72 µM and 2.15 µM. In addition, the GI50 in assay [8] was 5.9 µM and > 8.93 µM; in assay [9], < 0.0106 µM and 0.00612 µM; in assay [10], 0.0722 µM and 0.0489 µM. Also, the TGI was 17.1 µM and > 10 µM in [1]; > 100 µM in assay [2]; 26 µM and > 10 µM in [3]; 26.1 µM and > 10 µM in assay [4]; > 50.5 µM in assay [5]; > 100 µM in assay [6]. In addition, the TGI was > 10 µM in [7]; 28.5 µM and > 10 µM in [8]; 0.0829 µM and 0.0677 µM in assay [9]; 32.1 µM and > 10 µM in assay [10].
On to `O=C1C=CC(=Nc2cc(Br)c(O)c(Br)c2)C=C1`, for which the GI50 in assay [1] was 18 µM; in assay [2], 44.2 µM; in [3] it was 23.9 µM; in assay [4] it was 2.13 µM; in assay [5] it was 7.87 µM; in [6], 30 µM. For the same compound, the GI50 in assay [7] is 43 µM; in [8] it was 11.9 µM; in [9] it was 22.7 µM; in assay [10] it was 32.9 µM. Also, the TGI was 35 µM in assay [1]; > 100 µM in assay [2]; > 100 µM in assay [3]; > 100 µM in assay [4]; > 100 µM in [5]; > 100 µM in [6]. Further, the TGI was > 100 µM in assay [7], > 100 µM in assay [8], 68 µM in assay [9] and > 100 µM in assay [10].
With `O=C(c1ccccc1)C(CN1CCCCC1)c1ccccc1` (centres undefined), the GI50 is 0.892 µM in assay [1]; 9.6 µM in assay [2]; 0.865 µM in assay [3]; 0.539 µM in assay [4]; 2.81 µM in assay [5]; 0.681 µM in assay [6]. Moreover, the GI50 in [7] is 1.54 µM; in assay [8], 0.539 µM; in assay [9], 1.5 µM; in [10], 2.92 µM. Besides, the TGI turned out to be 5.67 µM in assay [1]; 21.5 µM in [2]; 2.63 µM in assay [3]; 4.26 µM in [4]; 37.8 µM in assay [5]; 2.05 µM in assay [6]. For the same compound, the TGI in assay [7] was 4.52 µM; in assay [8] it was 2.88 µM; in [9], 3.34 µM; in [10], 10.2 µM.
For the compound `Cc1nnc(-c2cccc(-c3ccc(C(=O)NCC4CC4)cc3)c2)o1`, the GI50 in assay [1], in [2], in [3], in assay [4], in assay [5] and in assay [6] was > 25 µM each time. In addition, the GI50 in assay [7], in assay [8], in [9] and in [10] was > 25 µM throughout. The TGI in assay [1], in assay [2], in [3], in assay [4], in [5] and in [6] was > 25 µM throughout. Moreover, the TGI in assay [7], in [8], in assay [9] and in assay [10] was > 25 µM throughout.
Consider `COc1cc(C(=O)N2CCN(c3ncnc4ccccc34)CC2)c(N)cc1OCc1ccccc1`, for which the GI50 in assay [1] is 12.7 µM; in assay [2], 13.7 µM; in assay [3], 15.2 µM; in assay [4], 4.11 µM; in assay [5], 8.29 µM; in assay [6] it was 7.21 µM. In addition, the GI50 in assay [7] was 13.2 µM; in assay [8] it was 14 µM; in assay [9], 17.8 µM; in [10], 20 µM. Further, the TGI in [1] was determined as 27.4 µM; in [2] it was 29.8 µM; in assay [3], 28.6 µM; in assay [4] it was 15.9 µM; in assay [5], 22.7 µM; in assay [6], 19.9 µM. Moreover, the TGI in [7] was determined as 47 µM; in assay [8] it was 47.8 µM; in [9], 41.6 µM; in [10], 51.1 µM.
With `Cc1nc2ccccc2c(/C=C/c2ccc(Cl)cc2)c1C(=O)/C=C/c1ccc(C(F)(F)F)cc1`, the GI50 was 0.165 µM in assay [1]; 0.722 µM in [2]; 0.41 µM in assay [3]; 0.25 µM in assay [4]; 0.303 µM in assay [5]; 1.03 µM in assay [6]. Also, the GI50 was 1.26 µM in [7], 0.269 µM in assay [8], 0.282 µM in assay [9] and 1.69 µM in assay [10]. Moreover, the TGI worked out at 0.54 µM in assay [1]; 1.97 µM in [2]; 1.88 µM in [3]; 2.26 µM in assay [4]; 1.55 µM in assay [5]; 2.53 µM in assay [6]. For the same compound, the TGI in assay [7] amounted to 2.61 µM; in [8], 0.681 µM; in assay [9] it was 1.56 µM; in [10], 3.09 µM.
